Literature values in PMC11187563, “The importance of tyrosines in multimers of cyclic RGD nonapeptides: towards αvβ6-integrin targeted radiotherapeutics” (RSC Medicinal Chemistry, 2024).

Tested on: αvβ6-integrin
Conditions: compared with its two siblings with one Phe replaced by a Tyr; cited from earlier work

## cyclo[FRGDLAFp(NMe)K]
  αvβ6-integrin affinity and subtype selectivity: slightly better αvβ6-integrin affinity and subtype selectivity
